Measured values as given in PubChem BioAssay AID2005 (Sanford-Burnham Center for Chemical Genomics, 2009).
Activity calls are given as the source filed them.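 Rule for the calls: active = plate Z score at or below -3, or inhibition of at least 30% at 20 µM; inactive = the rest.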

Experiment: compounds lowering EGFP fluorescence in F442A cells, dose response, counter-screen for p/CIP destabilizer project (AID 2005);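 note: cells express EGFP alone from a CMV promoter as a counter screen for p/CIP-EGFP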
Settings: F442A EGFP cells, EGFP fluorescence, 16 h, stronger effect = higher value

SMILES | inhibition (EGFP decrease, at 10 µM) [%] | inhibition (at 20 µM)
Cc1ccc(NC(=S)NC(NC(=O)c2ccco2)C(Cl)(Cl)Cl)cc1 (stereo unspecified) | 6.3 | 31.9%
CC(C)(C)n1nc2c(c1NC(=O)c1cc(Cl)ccc1[N+](=O)[O-])CS(=O)(=O)C2 | 10.5 | 22.6% (inactive)
CCN1CCN(c2cc(C)c3cc(NC(=S)N4CC(C)CC(C)C4)ccc3n2)CC1 (stereo unspecified) | 28.8 | 12.7% (inactive)
C=CCC(NCc1ccco1)c1ccc(OC)cc1OC (stereo unspecified) | 22.1 | -5.4% (inactive)
O=C(N/N=C\c1ccc2c(c1)OCO2)c1cncc(Br)c1 | 6.5 | 7.3% (inactive)
Cc1cc(NC(=O)CSCC(=O)OCc2nnc(-c3ccccc3)o2)no1 | -7.9 | -12.8% (inactive)
CCN1CCN(Cc2ccc(NC(=O)c3cc(NC(=O)C4=NN(c5ccccc5)C(=O)C4)cc(OC)c3)cc2C(F)(F)F)CC1 | 37.6 | 24.2% (inactive)
COCC(=O)N1CCCN(c2nc3c(C)cccc3cc2C#N)CC1 | 7.6 | -0.8% (inactive)
COc1ccc(-c2cc(C(F)(F)F)nc(N3CCN(C)CC3)n2)cc1OC | 8.9 | 8% (inactive)
Cc1cc(C)n(-c2nc3c(c(=O)[nH]c(=O)n3C)n2CC(O)COc2ccccc2)n1 (stereo unspecified) | -7.9 | 7.8% (inactive)
COc1ccc(N2CCN(C(=O)CNS(=O)(=O)c3ccc(Br)s3)CC2)cc1 | 31 | 28.5% (inactive)
COc1ccccc1OCc1ccc(C(=O)n2nc(C)c(Cl)c2C)o1 | -1.3 | 2.6% (inactive)
C/C(=C/C=C/[C@@H](C)C(=O)O)[C@H]1CN[C@H](C(=O)O)[C@H]1CC(=O)O | -8.3 | 10.3% (inactive)
CC(=O)c1ccc(NC(=O)NNS(=O)(=O)c2ccc([N+](=O)[O-])cc2)cc1 | 16.8 | 22.1% (inactive)
O=C(CN(CCc1ccccc1)C(=O)CNS(=O)(=O)c1ccccc1)NCC1CCCO1 (stereo unspecified) | 25.6 | 23.8% (inactive)
O=[N+]([O-])c1ccc(-c2nnc(CNC3CCCC3)o2)cc1 | 17.3 | 25.1% (inactive)
Cc1c(N=NC2=C(O)CCCC2=O)c(=O)n(-c2ccccc2)n1C | 6.5 | 21.3% (inactive)
CCOC(=O)CSc1nc2ccccc2c(=O)n1CCCCCC(=O)NCc1ccco1 | 8.4 | 5.8% (inactive)
COC(=O)c1ccc(-c2ccc(CNCC(O)c3ccccc3)o2)cc1 (stereo unspecified) | 8.8 | 7.1% (inactive)

SMILES | inhibition (EGFP decrease, at 10 µM) [%] | inhibition (at 20 µM)
O=C(NCc1ccc(Cl)cc1)C1CCN(S(=O)(=O)c2cccs2)CC1 | 6 | 6.7% (inactive)
CCN1C(=O)/C(=C2\C=Cc3cc(C)ccc3N2CC)OC1=S | -35.7 | -30.8% (inactive)
O=C(CCCn1c(=O)c2cccn2c2cccnc21)NCc1cccc(Br)c1 | -13.6 | 2.1% (inactive)
CCc1cccc(C)c1NC(=O)CCNC(=O)c1cccc(C)c1 | 12.2 | 12.9% (inactive)
Cc1nn(C)c(Cl)c1S(=O)(=O)N[C@@H](c1ccccc1)[C@]1(C)C[C@H]1[C@@H](C)C(=O)Nc1ccc2ccccc2c1 | 34.6 | 11.3% (inactive)
CC(=O)Nc1cn(C(C)=O)c(C)n1 | 5.9 | 33.7%
CCC(Cc1ccccc1)NC(=O)Cn1cccc1C(=O)c1ccccc1 (stereo unspecified) | 9.1 | 15.9% (inactive)
CC(OC(=O)C1CC1)C(=O)Nc1ccc([N+](=O)[O-])cc1Cl (stereo unspecified) | 14.2 | 3.9% (inactive)
CC(NC(=O)c1c(F)cccc1Cl)c1ccc(-n2ccnc2)cc1 (stereo unspecified) | 35.7 | 24.4% (inactive)
COc1cccc(NC(=O)N2CCC(NC(=O)C3CCCCC3)CC2)c1 | 13.5 | 8% (inactive)
NNC(=O)c1ccc(-c2cccc([N+](=O)[O-])c2)o1 | 4.6 | 9.1% (inactive)
Cc1ccc(S(=O)(=O)N(C)c2ccc(C(=O)NCc3cccnc3)cc2)cc1 | -13.7 | -8.4% (inactive)
COC(=O)COc1ccc(Oc2nc(SC)nc(N(C)C)n2)nn1 | 34.2 | 29.7% (inactive)
CCCCOc1ccc(/C(O)=C2/C(=O)C(=O)N(CCCOC)C2c2ccncc2)cc1 (stereo unspecified) | 5.3 | -10.4% (inactive)
Cn1c(O)c(C=NC2CCCCCC2)c(=O)[nH]c1=S | 0.3 | 7.6% (inactive)
COc1cc(NC(=O)c2ccccc2[N+](=O)[O-])c(C(=O)O)cc1OC | 9.2 | -1.6% (inactive)
COc1ccc(S(=O)(=O)N2CCOC2CNC(=O)C(=O)NCc2ccncc2)cc1 (stereo unspecified) | -30.4 | 8.6% (inactive)
O=S(=O)(NCC1CCCO1)c1cccc(C(F)(F)F)c1 (stereo unspecified) | 7.7 | 11.7% (inactive)
CC(=O)N1CCN(C(=O)CCCNC(=O)c2ccc(Cl)cc2)CC1 | 21 | -1.6% (inactive)
